Consider 16 compounds from patent US9273052B2, “Phthalazinone ketone derivative, preparation method thereof, and pharmaceutical use thereof” (Jiangsu Hansoh Pharmaceutical Co., Ltd., priority 2010, dated 2016).

One series concerns MDA-MB-436 cells. Kind of series: Cell proliferation inhibition assay (CCK8). Format: cell-based. The settings on record: Homo sapiens, 72 hours.
The nature of series [1]: Pharmacokinetics assay in SD rats (LC/MS/MS plasma concentration). Format: in vivo. The settings on record: 15 mg/kg; for AUC / half-life / MRT / Cmax / bioavailability: both sexes, rat, plasma; for AUC: read-out: Area Under Curve AUC; for half-life: read-out: Half-Life t1/2 (converted); for MRT: read-out: Mean Residence Time MRT; for Cmax: read-out: Plasma Conc. Cmax; for bioavailability: po. The method, then: The pharmacokinetic behavior of the compounds of the present invention was studied and evaluated in rats.
24 Healthy adult SD rats, male and female in half, were purchased from SINO-BRITSH SIPPR/BK LAB. ANIMAL LTD., CO, Certificate No.: SCXK (Shanghai) 2003-0002.
The intragastrical administration group: the right amount of tested compounds were weighed and dissolved in 0.5 mL of DMSO, diluted with physiological saline to 10 mL and prepared to 1.5 mg/mL.
The intravenous injection administration group: the right amount of tested compounds were weighed and added into […].
After an overnight fast, 24 healthy adult SD rats, male and female in half, were administered intragastrically at a dose of 15.0 mg/kg and an administration volume of 10 mL/kg.
The intragastrical administration group: blood samples (0.2 mL) were taken from orbital sinus at pre administration and at 0.25 hour, 0.5 hour, 1.0 hour, 1.5 hours, 2.0 hours, 3.0 hours, 4.0 hours, 6.0 hours, 7.0 hours, 9.0 hours, 12.0 hours and 24.0 hours post administration, stored in heparinized tubes and centrifuged for 20 minutes at 3,500 rpm to separate plasma. The plasma samples were stored at −20° C. The rats were fed at 2 hours after administration.
The intravenous injection administration group: blood samples (0.2 mL) were taken from orbital sinus at pre administration and at 2 minutes, 15 minutes, 0.5 hour, 1.0 hour, 2.0 hours, 3.0 hours, 4.0 hours, 6.0 hours, 8.0 hours, 12.0 hours and 24.0 hours post administration, stored in heparinized tubes and centrifuged for 20 minutes at 3,500 rpm to separate plasma. The plasma samples were stored at −20° C.
20 μL of rat blank plasmas taken at various time points after administration were added with 50 μL of internal standard solution and 140 μL of methanol and mixed for 3 minutes by a vortexer. The mixture was centrifuged for 10 minutes at 13,500 rpm. 20 μL of the supernatant was analyzed by LC-MS/MS. The main pharmacokinetic parameters were calculated by software DAS 2.0.

Series [2] deals with human colon carcinoma SW620. Kind of series: Antitumor effect with temozolomide on SW620 transplanted tumors in nude mice. Format: in vivo. The settings on record: colon carcinoma SW620 in BALB/cA-nude mice; 1 mg/kg oral gavage + TMZ 50 mg/kg oral gavage; day 44. On the procedure: The therapeutic effect of the compounds of the present invention administered in combination with temozolomide (TMZ) on transplanted tumors of human colon carcinoma SW620 or human breast cancer cells MX-1 in nude mice was evaluated by using BALB/cA-nude mice as test animals.
BALB/cA-nude mice, SPF, 16-20 g, female( ), were purchased from SINO-BRITSH SIPPR/BK LAB. ANIMAL LTD., CO. Certificate No.: SCXK(Shanghai) 2008-0016.
4.2 The right rib of the nude mice was subcutaneously inoculated with colon carcinoma cells SW620. After tumors grew to 339±132 mm^3, mice were randomly divided into teams (d0).
The volume of tumors and the weight of the mice were measured and recorded for 2 to 3 times per week.
The volume of tumor (V) was calculated by the follow equation: V=½×a×b^2 wherein: a, b represents length and width respectively. The antitumor rate(%)=(C−T)/C(%) wherein: T, C represents the tumor volume of the experimental group (tested compounds) and blank control group at the end of the experiment respectively. 5. Dosage, Dosage Regimens and the Results

In general, IC50 refers to the midpoint of a concentration-inhibition curve. A high value points to weaker potency in that assay. Usually AUC stands for the area under the concentration-time curve, a measure of exposure. One may read the MRT as a mean duration of stay, worked out from the concentration-time curve. For orientation: Cmax means the peak of the concentration-time curve. Broadly, the bioavailability is the share of a dose that reaches the circulation, judged against a reference dose that is usually intravenous. Read a low bioavailability as little systemic uptake.

The structures appear in SMILES notation. Where two headings read alike, the source gives them in different places.

In the series with MDA-MB-436 cells, `O=C(c1cccc(Cc2n[nH]c(=O)c3ccccc23)c1)N1CCn2c(nnc2C(F)(F)F)C1` [Example 15, 4-[[3-[3-(trifluoromethyl)-6,8-dihydro-5H-[1,2,4]triazolo[4,3-a]pyrazine-7-carbonyl]phenyl]methyl]-2H-phthalazin-1-one] came in with an IC50 of 0.9 nM.

`O=C(c1cc(Cc2n[nH]c(=O)c3ccccc23)ccc1F)N1CCn2c(nnc2CC(F)(F)F)C1` [Example 26, 4-[[4-fluoro-3-[3-(2,2,2-trifluoroethyl)-6,8-dihydro-5H-[1,2,4]triazolo[4,3-a]pyrazine-7-carbonyl]phenyl]methyl]-2H-phthalazin-1-one]: the concentration for half-maximal inhibition (IC50) with MDA-MB-436 cells is 3 nM.

In the series on MDA-MB-436 cells, `O=C(c1cc(Cc2n[nH]c(=O)c3ccccc23)ccc1F)N1CCn2c(C(F)(F)F)nc(C(=O)N3CCCC3)c2C1` [Example 18, 4-[[4-fluoro-3-[1-(pyrrolidine-1-carbonyl)-3-(trifluoromethyl)-6,8-dihydro-5H-imidazo[1,5-a]pyrazine-7-carbonyl]phenyl]methyl]-2H-phthalazin-1-one] showed a half-inhibitory concentration (IC50) of 610 nM.

Regarding `O=C(c1cc(Cc2n[nH]c(=O)c3ccccc23)ccc1F)N1CCn2ncnc2C1` [Example 16, 4-[[3-(6,8-dihydro-5H-[1,2,4]triazolo[1,5-a]pyrazine-7-carbonyl)-4-fluoro-phenyl]methyl]-2H-phthalazin-1-one], the half-inhibitory concentration (IC50) in the series with MDA-MB-436 cells was determined as 99 nM.

For `CNC(=O)c1nc(C(F)(F)F)n2c1CN(C(=O)c1cccc(Cc3n[nH]c(=O)c4ccccc34)c1)CC2` [Example 21, N-methyl-7-[3-[(4-oxo-3H-phthalazin-1-yl)methyl]benzoyl]-3-(trifluoromethyl)-6,8-dihydro-5H-imidazo[1,5-a]pyrazine-1-carboxamide], half-maximal inhibition in the series on MDA-MB-436 cells (IC50) required 780 nM.

`CN(C)C(=O)c1nc(C(F)(F)F)n2c1CN(C(=O)c1cc(Cc3n[nH]c(=O)c4ccccc34)ccc1F)CC2` [Example 22, 7-[2-fluoro-5-[(4-oxo-3H-phthalazin-1-yl)methyl]benzoyl]-N,N-dimethyl-3-(trifluoromethyl)-6,8-dihydro-5H-imidazo[1,5-a]pyrazine-1-carboxamide] registered a half-maximal inhibitory concentration (IC50) with MDA-MB-436 cells of 650 nM.

Turning to `CNC(=O)c1nc(C(F)(F)F)n2c1CN(C(=O)c1cc(Cc3n[nH]c(=O)c4ccccc34)ccc1F)CC2` [Example 13, 7-[2-fluoro-5-[(4-oxo-3H-phthalazin-1-yl)methyl]benzoyl]-N-methyl-3-(trifluoromethyl)-6,8-dihydro-5H-imidazo[1,5-a]pyrazine-1-carboxamide], the 50% inhibitory concentration (IC50) in the series on MDA-MB-436 cells worked out at 120 nM. Further, in series [1] (intravenous injection), the AUC was determined as 29400 ± 18500 ng·h/mL, the half-life was 5.05 ± 1.34 h, the mean residence time (MRT) stood at 0.89 ± 0.44 h and the “Apparent Distribution Volume Vz/F” value is 4.70 ± 2.17 kg⁻¹. The “Clearance CL/F” value in series [1] (intravenous injection) is recorded as 0.72 ± 0.45 1/11/kg. Moreover, in series [1] (oral gavage), the AUC was 4300 ± 3250 ng·h/mL, the half-life was 6.01 ± 2.27 h, the MRT stood at 1.87 ± 0.53 h and the maximum concentration (Cmax) came to 3070 ± 719 ng/mL. In addition, in series [1] (oral gavage), the “Apparent Distribution Volume Vz/F” value was 49.9 ± 52.9 kg⁻¹ and the “Clearance CL/F” value is reported as 4.47 ± 3.78 1/11/kg. In series [1], the bioavailability was determined as 16.8%.

Compound `O=C(c1cc(Cc2n[nH]c(=O)c3ccccc23)ccc1F)N1CCn2cnnc2C1` [Example 17, 4-[[3-(6,8-dihydro-5H-[1,2,4]triazolo[4,3-a]pyrazine-7-carbonyl)-4-fluoro-phenyl]methyl]-2H-phthalazin-1-one] had a half-maximal inhibitory concentration (IC50) in the series with MDA-MB-436 cells of 61 nM.

In the case of `NC(=O)c1nc(C(F)(F)F)n2c1CN(C(=O)c1cc(Cc3n[nH]c(=O)c4ccccc34)ccc1F)CC2` [Example 10, 7-[2-fluoro-5-[(4-oxo-3H-phthalazin-1-yl)methyl]benzoyl]-3-(trifluoromethyl)-6,8-dihydro-5H-imidazo[1,5-a]pyrazine-1-carboxamide], the IC50 with MDA-MB-436 cells amounted to 140 nM.

Consider `O=C(c1cc(Cc2n[nH]c(=O)c3ccccc23)ccc1F)N1CCn2c(cnc2C(F)(F)F)C1` [Example 5, 4-[[4-fluoro-3-[3-(trifluoromethyl)-6,8-dihydro-5H-imidazo[1,5-a]pyrazine-7-carbonyl]phenyl]methyl]-2H-phthalazin-1-one], for which 320 nM corresponded to half-maximal inhibition in the series on MDA-MB-436 cells (IC50).

Regarding `O=C(c1cc(Cc2n[nH]c(=O)c3ccccc23)ccc1F)N1CCn2c(nnc2C(F)F)C1` [Example 23, 4-[[3-[3-(difluoromethyl)-6,8-dihydro-5H-[1,2,4]triazolo[4,3-a]pyrazine-7-carbonyl]-4-fluoro-phenyl]methyl]-2H-phthalazin-1-one], the IC50 with MDA-MB-436 cells worked out at 2 nM.

Turning to `O=C(c1cc(Cc2n[nH]c(=O)c3ccccc23)ccc1F)N1CCn2cc(C(F)(F)F)nc2C1` [Example 12, 4-[[4-fluoro-3-[2-(trifluoromethyl)-6,8-dihydro-5H-imidazo[1,2-a]pyrazine-7-carbonyl]phenyl]methyl]-2H-phthalazin-1-one], the half-maximal inhibitory concentration (IC50) in the series on MDA-MB-436 cells came out at 590 nM.

`CCNC(=O)c1nc(C(F)(F)F)n2c1CN(C(=O)c1cc(Cc3n[nH]c(=O)c4ccccc34)ccc1F)CC2` [Example 7, N-ethyl-7-[2-fluoro-5-[(4-oxo-3H-phthalazin-1-yl)methyl]benzoyl]-3-(trifluoromethyl)-6,8-dihydro-5H-imidazo[1,5-a]pyrazine-1-carboxamide] gave an IC50 in the series with MDA-MB-436 cells of 71 nM. In series [1] (intravenous injection), the area under the curve (AUC) turned out to be 34800 ± 15500 ng·h/mL, the half-life is 0.94 ± 0.26 h, the MRT was found to be 1.25 ± 0.53 h and the “Apparent Distribution Volume Vz/F” value is 0.64 ± 0.19 kg⁻¹. Besides, in series [1] (intravenous injection), the “Clearance CL/F” value is 0.52 ± 0.29 1/11/kg. Moreover, in series [1] (oral gavage), the AUC stood at 4500 ± 6670 ng·h/mL, the half-life was 3.87 ± 4.03 h, the MRT was found to be 12.7 ± 15.4 h and the peak concentration (Cmax) was 971 ± 1400 ng/mL. In series [1] (oral gavage), the “Apparent Distribution Volume Vz/F” value is 103 ± 134 kg⁻¹ and the “Clearance CL/F” value was 15.4 ± 12.4 1/11/kg. The compound also registered a bioavailability in series [1] of 12.9%.

In turn, `O=C(NCC1CC1)c1nc(C(F)(F)F)n2c1CN(C(=O)c1cc(Cc3n[nH]c(=O)c4ccccc34)ccc1F)CC2` [Example 24, N-(cyclopropylmethyl)-7-[2-fluoro-5-[(4-oxo-3H-phthalazin-1-yl)methyl]benzoyl]-3-(trifluoromethyl)-6,8-dihydro-5H-imidazo[1,5-a]pyrazine-1-carboxamide] returned a 50% inhibitory concentration (IC50) in the series on MDA-MB-436 cells of 72 nM.

Consider `O=C(c1cc(Cc2n[nH]c(=O)c3ccccc23)ccc1F)N1CCn2c(nnc2C(F)(F)F)C1` [Example 1, 4-[[4-fluoro-3-[3-(trifluoromethyl)-6,8-dihydro-5H-[1,2,4]triazolo[4,3-a]pyrazine-7-carbonyl]phenyl]methyl]-2H-phthalazin-1-one], for which, in the series on MDA-MB-436 cells, inhibition was half-maximal at 0.8 nM (IC50). Further, the “antitumor rate (%)” value in series [2] is reported as “++ (“++”: 60%~80%)”.

The compound `COC(=O)c1nc(C(F)(F)F)n2c1CN(C(=O)c1cc(Cc3n[nH]c(=O)c4ccccc34)ccc1F)CC2` [Example 3, methyl 7-[2-fluoro-5-[(4-oxo-3H-phthalazin-1-yl)methyl]benzoyl]-3-(trifluoromethyl)-6,8-dihydro-5H-imidazo[1,5-a]pyrazine-1-carboxylate] displayed an IC50 with MDA-MB-436 cells of 190 nM.
